The values that follow come from patent US10865201B2, “Bicyclic compounds useful as GPR120 modulators” (Valo Health, Inc., priority 2016, dated 2020).

Assay [1] addresses T1, human GPR120 (Homo sapiens, UniProt Q5NUL3).
T1 construct: host or cells: CHO-K1
The experiment in a line: Human GPR120 β-Arrestin Recruitment Assay. The following applies: CHO-K1 cells co-expressing ProLink-tagged human GPR120 and β-Arrestin 2/β-gal fusion; PathHunter; 90 minutes at 37° C.; read-out: β-Arr pEC50 (converted). Type of assay: cell-based. An excerpt:
This in vitro assay tests compounds' ability to activate intracellular signaling via β-Arrestin recruitment to heterologously expressed human GPR120. This functional cellular assay utilizes enzyme fragment complementation with β-galactosidase (β-gal) as a functional reporter (DiscoveRx PathHunter® β-Arrestin assay platform). The human GPR120 receptor (GenBank accession Number NM_181745) was fused in frame with the small enzyme fragment ProLink™ and co-expressed in CHO-K1 cells with a fusion protein of β-Arrestin 2 and the larger, N-terminal deletion mutant of β-gal. Activation by a GPR120 agonist stimulates binding of β-arrestin to the ProLink-tagged GPCR and forces complementation of the two enzyme fragments, resulting in the formation of an active β-gal enzyme. This interaction leads to an increase in enzyme activity that can be measured using chemiluminescent PathHunter® Detection Reagents.
One day prior to the assay, cells were seeded in a total volume of 20 μl of growth medium into white walled 384-well microplates and incubated at 37° C./5% CO2 overnight. On the day of the assay, growth medium was removed and 20 μl assay buffer (HBSS+10 mM HEPES+0.1% heat-inactivated BSA) were added to each well.
Test compounds were dissolved in 100% DMSO to a concentration of 10 mM to provide stock solutions. Serial dilutions were performed from stock solutions into assay buffer to obtain intermediate concentrations of 5-fold higher than the concentrations to be tested. 5 μl of the 5x compound solutions were added to the cells and the assay plates were incubated alt 37° C. for 90 minutes, The final concentration of compounds tested in the assay ranged from 1.5 nM to 100 μM. Following incubation, 12.5 μl of PathHunter® detection reagent were added to each well, and plates were incubated at room temperature for 60 minutes. Chemiluminescence was read using an EnVision plate reader (PerkinElmer), raw data were expressed as relative light units (RLU).
(§1) To determine agonist potencies (EC50 values), non-linear least-squares curve fits of the raw data (RLU) were performed in the GraphPad Prism software package, using the 4-parameter model with variable Hill Slope:
Reported below in Table 1 are pEC50 values (pEC50=−log(EC50) from curve fit) for compounds of Formula I in this assay, β-Arr pEC50.
In general terms: Arrestin recruitment assays detect the binding of arrestin to an activated receptor.
T1 sequence (Q5NUL3 1-377 isoform Q5NUL3-1): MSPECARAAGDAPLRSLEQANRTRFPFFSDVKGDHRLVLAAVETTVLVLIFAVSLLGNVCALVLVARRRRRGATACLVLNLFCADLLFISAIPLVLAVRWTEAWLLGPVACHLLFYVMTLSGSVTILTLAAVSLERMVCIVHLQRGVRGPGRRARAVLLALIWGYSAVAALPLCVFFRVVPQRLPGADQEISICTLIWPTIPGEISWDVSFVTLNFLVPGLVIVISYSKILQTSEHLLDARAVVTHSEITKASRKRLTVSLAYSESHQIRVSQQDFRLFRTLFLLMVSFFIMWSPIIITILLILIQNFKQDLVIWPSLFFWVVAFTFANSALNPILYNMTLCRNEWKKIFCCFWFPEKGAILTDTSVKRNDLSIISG
T1 sequence (P32121 whole entry partner): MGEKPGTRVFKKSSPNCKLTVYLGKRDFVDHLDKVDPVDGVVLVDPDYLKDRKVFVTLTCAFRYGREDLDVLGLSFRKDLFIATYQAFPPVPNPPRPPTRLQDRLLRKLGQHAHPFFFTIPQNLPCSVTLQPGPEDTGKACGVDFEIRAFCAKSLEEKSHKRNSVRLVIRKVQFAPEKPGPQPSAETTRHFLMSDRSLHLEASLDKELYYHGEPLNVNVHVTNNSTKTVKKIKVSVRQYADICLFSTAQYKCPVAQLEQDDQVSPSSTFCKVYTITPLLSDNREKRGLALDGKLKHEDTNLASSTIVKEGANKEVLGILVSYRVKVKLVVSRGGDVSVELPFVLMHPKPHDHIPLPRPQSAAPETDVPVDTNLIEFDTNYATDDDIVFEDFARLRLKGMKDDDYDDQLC

The target of assay [2] is T2, human GPR120 (Homo sapiens, UniProt Q5NUL3).
T2 construct: expressed in transfected cells; host or cells: CHO-K1 coexpressing Gα16 and mitochondrial apoaequorin
T2 sequence (Q5NUL3 1-361): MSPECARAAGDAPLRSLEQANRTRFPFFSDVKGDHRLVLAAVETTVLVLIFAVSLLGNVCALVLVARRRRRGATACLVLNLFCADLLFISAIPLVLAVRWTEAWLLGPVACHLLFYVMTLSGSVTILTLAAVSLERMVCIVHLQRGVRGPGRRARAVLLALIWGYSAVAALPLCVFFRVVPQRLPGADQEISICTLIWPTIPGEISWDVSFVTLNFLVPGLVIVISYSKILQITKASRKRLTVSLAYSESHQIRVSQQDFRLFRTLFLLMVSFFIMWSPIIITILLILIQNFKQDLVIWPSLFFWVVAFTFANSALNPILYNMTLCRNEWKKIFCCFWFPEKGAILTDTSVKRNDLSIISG
The assay can be described thus: Human GPR120 Calcium-Release Assay. It is filed as cell-based. The conditions noted are these: short variant of human GPR120 in CHO-K1 cells coexpressing Gα16 and mitochondrial apoaequorin; luminescence; read-out: Ca2+ pEC50 (converted).
From the text: This in vitro assay tests compounds' ability to activate heterologously expressed human GPR120 via G-protein coupling leading to generation of inositol 1,4,5-triphosphate and mobilization of intracellular calcium. This functional cellular assay is based on the luminescence of mitochondrial aequorin following intracellular Ca^2+ release. Aequorin is a photoprotein isolated from the jellyfish Aequorea victoria. The active protein is formed in the presence of molecular oxygen from apoaequorin and its cofactor coelenterazine. Binding of Ca^2+ to the active protein induces a conformational change, resulting in oxidation of coelenterazine and subsequent blue luminescence.
The short variant of the human GPR120 receptor (GenBank accession Number AAI01176) was stably expressed in a CHO-K1 cell line coexpressing Gα16 and mitochondrial apoaequorin.
Cells were grown to mid-log phase in culture media without antibiotics, were detached with PBS/EDTA, centrifuged and resuspended in assay buffer (DMEM-F12 medium with 15 mM HEPES pH 7.0 and 0.1% protease free BSA) at a concentration of 10^6 cells/mL. Cells were incubated at room temperature for at least 4 hours with 5 μM coelenterazine h.
Test compounds were dissolved in 100% DMSO to a concentration of 20 mM to provide stock solutions. Serial dilutions were performed from stock solutions in 100% DMSO to obtain intermediate concentrations 200-fold higher than the concentrations to be tested. Each sample was diluted 100-fold into assay buffer. 50 μl of these compound solutions were dispensed into each well of 96-well assay plates. The final concentration of compounds tested in the assay ranged from 5 nM to 100 μM. α-Linolenic acid was used as a reference compound. Each test was performed in duplicate.
To start the assay, 50 μl of cell suspension were added to each well of the assay plate. The resulting luminescence was recorded using a Hamamatsu Functional Drug Screening System 6000 (FDSS 6000), and raw data were expressed as relative light units (RLU).
as §1
Reported below in Table 1 are pEC50 values (pEC50=−log(EC50) from curve fit) for representative compounds of Formula I in this assay, Ca2+pEC50.

Take `O=S1(=O)c2ccc(Oc3cccc(Cl)c3)cc2CN1Cc1ccccc1` [Compound 3]: the EC50 on human GPR120 [1] is 0.158 µM; on human GPR120 [2], 3.98 µM.
On to `O=S1(=O)c2ccc(Oc3cccnc3)cc2CN1c1cc(OC(F)(F)F)ccc1Cl` [Compound 41], for which the EC50 at human GPR120 [1] was above 31.6 µM.
For `O=S1(=O)c2ccc(Oc3cccnc3)cc2CN1Cc1cccc(Cl)c1` [Compound 9], the EC50 at human GPR120 [1] is 1.26 µM; at human GPR120 [2], 1.58 µM.
For `O=S1(=O)c2ccc(Oc3cccnc3)cc2CN1Cc1cc(OC(F)(F)F)ccc1Cl` [Compound 16], the EC50 on human GPR120 [1] is 3.16 µM.
The same measure, in the same setting: with `O=S1(=O)c2ccc(Oc3ccccn3)cc2CN1c1ccccc1` [Compound 27] the figure was above 31.6 µM; with `O=S1(=O)c2ccc(OCc3cccnc3)cc2CN1c1ccccc1` [Compound 40], above 31.6 µM.
`O=S1(=O)c2ccc(Oc3ccccc3)cc2CN1c1ccccc1` [Compound 25]: the EC50 at human GPR120 [1] is 1 µM; at human GPR120 [2] it was 1.26 µM.
Take `O=C(O)c1ccc(CN2Cc3cc(Oc4cccnc4)ccc3S2(=O)=O)cc1` [Compound 21]: the EC50 at human GPR120 [1] is above 31.6 µM.
In the case of `O=S1(=O)c2ccc(Oc3cccnc3)cc2CN1c1cccc(Cl)c1` [Compound 32], at human GPR120 [1], the EC50 was 1.58 µM.
On to `O=S1(=O)c2ccc(Oc3cccnc3)cc2CN1Cc1c(Cl)cccc1Cl` [Compound 6], for which the EC50 at human GPR120 [1] is above 10 µM.
`O=S1(=O)c2ccc(Oc3cccnc3)cc2CN1Cc1c(F)cccc1Cl` [Compound 7]: the EC50 at human GPR120 [1] is 3.98 µM; at human GPR120 [2] it was 2 µM.
The matching figures for `O=S1(=O)c2ccc(OC3CC(F)(F)C3)cc2CN1Cc1ccccc1` [Compound 14]: 12.6 µM and 20 µM.
The matching figures for `O=S1(=O)c2ccc(Oc3ccc(Cl)c(Cl)c3)cc2CN1c1ccccc1` [Compound 29]: above 31.6 µM and above 100 µM.
As for `O=S1(=O)c2ccc(Oc3ccncc3)cc2CN1c1ccccc1` [Compound 26], at human GPR120 [1], the EC50 is above 31.6 µM.
Consider `O=S1(=O)c2ccc(Oc3cccnc3)cc2CN1Cc1cccnc1` [Compound 19], for which the EC50 was 7.94 µM on human GPR120 [1] and 15.8 µM at human GPR120 [2].
For `O=S1(=O)c2ccc(Oc3cccc(Cl)c3)cc2CN1c1ccccc1` [Compound 28] the same measures were 0.794 µM and 39.8 µM.
For `O=S1(=O)c2ccc(Oc3cccnc3)cc2CN1Cc1ccc(Cl)cc1` [Compound 10] the same measures were 3.16 µM and 2.51 µM.
For `O=C1c2ccc(Oc3cccnc3)cc2CN1Cc1ccccc1` [Compound 46] the same measures were 6.31 µM and 10 µM.
Regarding `O=S1(=O)c2ccc(Oc3cccnc3)cc2CN1Cc1ccncc1` [Compound 20], the results for the EC50 at human GPR120 [1] and at human GPR120 [2] were 3.16 µM and 10 µM, respectively.
Consider `Cc1cc(Oc2cccnc2)cc2c1S(=O)(=O)N(Cc1ccccc1)C2` [Compound 23], for which, on human GPR120 [1], the EC50 was 2 µM.
For the compound `O=S1(=O)c2ccc(Oc3ccc(Cl)c(Cl)c3)cc2CN1Cc1ccccc1` [Compound 5], at human GPR120 [1], the EC50 is 1.58 µM.
Same read-out and setting: with `O=S1(=O)c2ccc(Oc3cccnc3)cc2CN1Cc1ccccc1Cl` [Compound 8] the figure was 6.31 µM; with `O=C(O)c1cccc(CN2Cc3cc(Oc4cccnc4)ccc3S2(=O)=O)c1` [Compound 22], above 31.6 µM.
Consider `O=S1(=O)c2ccc(Oc3cccnc3)cc2CN1Cc1ccc(Cl)cc1Cl` [Compound 11], for which the EC50 at human GPR120 [1] is 7.94 µM; at human GPR120 [2], 3.98 µM.
In the case of `O=S1(=O)c2ccc(Oc3cccnc3)cc2CN1c1ccccn1` [Compound 34], the EC50 at human GPR120 [1] was 15.8 µM; on human GPR120 [2] it was 10 µM.
Regarding `O=S1(=O)c2ccc(Oc3ccccc3)cc2CN1Cc1ccccc1` [Compound 2], the EC50 at human GPR120 [1] was 0.501 µM; on human GPR120 [2] it was 1 µM.
`O=S1(=O)c2ccc(Oc3cccnc3)cc2CN1C1CCC1` [Compound 44]: the EC50 at human GPR120 [1] was 12.6 µM.
The same measure, in the same setting: with `CN1Cc2cc(Oc3cccnc3)ccc2S1(=O)=O` [Compound 12] the figure was above 31.6 µM; with `O=C1c2ccc(Oc3cccnc3)cc2CN1c1ccccc1` [Compound 45], above 10 µM.
`O=S1(=O)c2ccc(OC3CCC3)cc2CN1c1ccccc1` [Compound 30]: the EC50 was 2.51 µM at human GPR120 [1] and above 100 µM at human GPR120 [2].
With `O=S1(=O)c2ccc(OCc3ccccc3)cc2CN1c1ccccc1` [Compound 38], the EC50 on human GPR120 [1] is 5.01 µM.
Turning to `O=S1(=O)c2ccc(Oc3ccc(Cl)cc3)cc2CN1Cc1ccccc1` [Compound 4], the EC50 is 0.251 µM at human GPR120 [1] and 7.94 µM on human GPR120 [2].
In the case of `O=S1(=O)c2ccc(Oc3cccnc3)cc2CN1c1cccc(OC(F)(F)F)c1` [Compound 33], at human GPR120 [1], the EC50 was 5.01 µM.
As to `O=S1(=O)c2ccc(Oc3ccc(Cl)cc3)cc2CN1c1ccccc1` [Compound 37], on human GPR120 [1], the EC50 is above 10 µM.
As for `O=S1(=O)c2ccc(OC3CCC3)cc2CN1Cc1ccccc1` [Compound 15], the EC50 is 0.501 µM at human GPR120 [1] and 0.794 µM at human GPR120 [2].
Take `O=S1(=O)c2ccc(Oc3cccnc3)cc2CN1c1cccnc1` [Compound 31]: the EC50 on human GPR120 [1] was above 10 µM.
Same read-out and setting: with `O=S1(=O)c2ccc(Oc3cccnc3)cc2CN1CCc1ccccc1` [Compound 17] the figure was above 10 µM; with `CC(c1ccccc1)N1Cc2cc(Oc3cccnc3)ccc2S1(=O)=O` (centres unmarked) [Compound 13], above 10 µM; with `O=C(O)c1cccc(N2Cc3cc(Oc4cccnc4)ccc3S2(=O)=O)c1` [Compound 36], above 10 µM.
As to `O=S1(=O)c2ccc(Oc3cccnc3)cc2CN1c1ccncc1` [Compound 35], the EC50 at human GPR120 [1] was 12.6 µM.
Consider `O=S1(=O)c2ccc(Oc3cccnc3)cc2CN1c1ccccc1` [Compound 24], for which the EC50 is 7.94 µM on human GPR120 [1] and 2.51 µM on human GPR120 [2].
